Read-outs that look alike come from different tables or passages of the source.
What was measured:
Format in all cases: cell-based
MCF7 = test: NCI60 five-dose screen; conditions: Homo sapiens, MCF7
SW-620 = test: NCI60 five-dose screen; conditions: Homo sapiens, SW-620
MDA-MB-468 [1] = test: NCI60 five-dose screen; conditions: Homo sapiens, MDA-MB-468
TK-10 [2] = test: NCI60 one-dose screen; conditions: Homo sapiens, TK-10, read-out: Growth percent
HOP-62 [3] = test: NCI60 five-dose screen; conditions: Homo sapiens, HOP-62
SF-268 = test: NCI60 one-dose screen; conditions: Homo sapiens, SF-268, read-out: Growth percent
UO-31 = test: NCI60 one-dose screen; conditions: Homo sapiens, UO-31, read-out: Growth percent
HCT-116 = test: NCI60 one-dose screen; conditions: Homo sapiens, HCT-116, read-out: Growth percent
NCI-H226 = test: NCI60 one-dose screen; conditions: Homo sapiens, NCI-H226, read-out: Growth percent
UACC-257 [4] = test: NCI60 five-dose screen; conditions: Homo sapiens, UACC-257
[5] = test system: Non-small Cell Lung Cancer panel; test: NCI60 five-dose screen, panel mean; conditions: Homo sapiens
MOLT-4 = test: NCI60 five-dose screen; conditions: Homo sapiens, MOLT-4
SNB-19 = test: NCI60 five-dose screen; conditions: Homo sapiens, SNB-19
OVCAR-5 [6] = test: NCI60 five-dose screen; conditions: Homo sapiens, OVCAR-5
M14 = test: NCI60 one-dose screen; conditions: Homo sapiens, M14, read-out: Growth percent
COLO 205 [7] = test: NCI60 five-dose screen; conditions: Homo sapiens, COLO 205
KM12 = test: NCI60 five-dose screen; conditions: Homo sapiens, KM12
CCRF-CEM = test: NCI60 five-dose screen; conditions: Homo sapiens
UACC-257 [8] = test: NCI60 one-dose screen; conditions: Homo sapiens, UACC-257, read-out: Growth percent
NCI-H460 = test: NCI60 five-dose screen; conditions: Homo sapiens, NCI-H460
U251 [9] = test: NCI60 five-dose screen; conditions: Homo sapiens, U-251
U251 [10] = test: NCI60 one-dose screen; conditions: Homo sapiens, U-251, read-out: Growth percent
LOX IMVI = test: NCI60 five-dose screen; conditions: Homo sapiens
NCI-H522 = test: NCI60 one-dose screen; conditions: Homo sapiens, NCI-H522, read-out: Growth percent
A549/ATCC = test: NCI60 five-dose screen; conditions: Homo sapiens, A549
SF-295 = test: NCI60 one-dose screen; conditions: Homo sapiens, SF-295, read-out: Growth percent
HS 578T = test: NCI60 one-dose screen; conditions: Homo sapiens, Hs-578T, read-out: Growth percent
NCI-H322M = test: NCI60 five-dose screen; conditions: Homo sapiens
OVCAR-5 [11] = test: NCI60 one-dose screen; conditions: Homo sapiens, OVCAR-5, read-out: Growth percent
ACHN [12] = test: NCI60 one-dose screen; conditions: Homo sapiens, read-out: Growth percent
HT29 = test: NCI60 one-dose screen; conditions: Homo sapiens, HT-29, read-out: Growth percent
DU-145 = test: NCI60 one-dose screen; conditions: Homo sapiens, DU-145, read-out: Growth percent
RPMI-8226 = test: NCI60 one-dose screen; conditions: Homo sapiens, RPMI-8226, read-out: Growth percent
Colon Cancer panel = test: NCI60 five-dose screen, panel mean; conditions: Homo sapiens
Ovarian Cancer panel = test: NCI60 five-dose screen, panel mean; conditions: Homo sapiens
T-47D [13] = test: NCI60 five-dose screen; conditions: Homo sapiens, T47D
SNB-75 = test: NCI60 one-dose screen; conditions: Homo sapiens, SNB-75, read-out: Growth percent
COLO 205 [14] = test: NCI60 one-dose screen; conditions: Homo sapiens, COLO 205, read-out: Growth percent
MDA-MB-468 [15] = test: NCI60 one-dose screen; conditions: Homo sapiens, MDA-MB-468, read-out: Growth percent
ACHN [16] = test: NCI60 five-dose screen; conditions: Homo sapiens
Renal Cancer panel = test: NCI60 five-dose screen, panel mean; conditions: Homo sapiens
T-47D [17] = test: NCI60 one-dose screen; conditions: Homo sapiens, T47D, read-out: Growth percent
HOP-62 [18] = test: NCI60 one-dose screen; conditions: Homo sapiens, HOP-62, read-out: Growth percent
CAKI-1 = test: NCI60 one-dose screen; conditions: Homo sapiens, CAKI-1, read-out: Growth percent
TK-10 [19] = test: NCI60 five-dose screen; conditions: Homo sapiens, TK-10
SK-MEL-28 = test: NCI60 one-dose screen; conditions: Homo sapiens, SK-MEL-28, read-out: Growth percent

CC[C@]12C=CCN3CC[C@@]4(c5ccc(OC)cc5N(C)[C@H]4[C@@](O)(C(=O)OC)[C@@H]1OC(=O)CCCC[P+](C1CCCCC1)(C1CCCCC1)C1CCCCC1)[C@@H]32 [10d] gave a GI50 (MCF7) of 1050 nM, a GI50 (SW-620) of 2750 nM and a GI50 (MDA-MB-468 [1]) of 378 nM. The activity at 10 µM (TK-10 [2]) was -64.1%, the GI50 (HOP-62 [3]) was 3900 nM and the activity at 10 µM (SF-268) was -70.5%. For the same compound, the activity at 10 µM (UO-31) was 78.9%, the activity at 10 µM (HCT-116) was 4.69% and the activity at 10 µM (NCI-H226) was -22%. For the same compound, the GI50 (UACC-257 [4]) was 1570 nM, the GI50 ([5]; read-out: GI50 Mean) was 2950 nM and the GI50 (MOLT-4) was 1720 nM. It also gave a GI50 (SNB-19) of 1920 nM, a GI50 (OVCAR-5 [6]) of 3190 nM and an activity at 10 µM (M14) of -83.5%. The GI50 (COLO 205 [7]) was 377 nM, the GI50 (KM12) was 1720 nM and the GI50 (CCRF-CEM) was 2550 nM. For the same compound, the activity at 10 µM (UACC-257 [8]) was -82.1%, the GI50 (NCI-H460) was 2710 nM and the GI50 (U251 [9]) was 640 nM. It also gave an activity at 10 µM (U251 [10]) of -87.9%, a GI50 (LOX IMVI) of 2900 nM and an activity at 10 µM (NCI-H522) of -71.8%. It also gave a GI50 (A549/ATCC) of 3130 nM, an activity at 10 µM (SF-295) of -19.6% and an activity at 10 µM (HS 578T) of -35%. It also gave a GI50 (NCI-H322M) of 5300 nM, an activity at 10 µM (OVCAR-5 [11]) of 5.84% and an activity at 10 µM (ACHN [12]) of 18.7%. It also gave an activity at 10 µM (HT29) of -24%, an activity at 10 µM (DU-145) of 9.57% and an activity at 10 µM (RPMI-8226) of -45%. It also gave a GI50 (Colon Cancer panel; read-out: GI50 Mean) of 3800 nM, a GI50 (Ovarian Cancer panel; read-out: GI50 Mean) of 11400 nM and a GI50 (T-47D [13]) of 920 nM. The activity at 10 µM (SNB-75) was -81.4%, the activity at 10 µM (COLO 205 [14]) was -76.6% and the activity at 10 µM (MDA-MB-468 [15]) was -79%. It also gave a GI50 (ACHN [16]) of 16000 nM, a GI50 (Renal Cancer panel; read-out: GI50 Mean) of 8360 nM and an activity at 10 µM (T-47D [17]) of 3.83%. For the same compound, the activity at 10 µM (HOP-62 [18]) was 9.52%, the activity at 10 µM (CAKI-1) was -24.1% and the GI50 (TK-10 [19]) was 3080 nM. For the same compound, the activity at 10 µM (SK-MEL-28) was -86.5%.
With CCC12C=CCN3CCC4(c5ccc(OC)cc5N(C)C4C(O)(C(=O)OC)C1OC(=O)CCC[P+](c1ccc(C)cc1)(c1ccc(C)cc1)c1ccc(C)cc1)C32 (centres unmarked) [9a] the GI50 (MCF7) was 281 nM, the GI50 (SW-620) was 434 nM and the GI50 (MDA-MB-468 [1]) was 165 nM. It also gave an activity at 10 µM (TK-10 [2]) of -88.5%, a GI50 (HOP-62 [3]) of 470 nM and an activity at 10 µM (SF-268) of -46.3%. The activity at 10 µM (UO-31) was -97.4%, the activity at 10 µM (HCT-116) was -93.4% and the activity at 10 µM (NCI-H226) was -77.4%. The GI50 (UACC-257 [4]) was 272 nM, the GI50 ([5]; read-out: Mean GI50) was 410 nM and the GI50 (MOLT-4) was 294 nM. For the same compound, the GI50 (SNB-19) was 306 nM, the GI50 (OVCAR-5 [6]) was 331 nM and the activity at 10 µM (M14) was -85.3%. It also gave a GI50 (COLO 205 [7]) of 176 nM, a GI50 (KM12) of 376 nM and a GI50 (CCRF-CEM) of 359 nM. It also gave an activity at 10 µM (UACC-257 [8]) of -92.7%, a GI50 (NCI-H460) of 327 nM and a GI50 (U251 [9]) of 291 nM. For the same compound, the activity at 10 µM (U251 [10]) was -91.2%, the GI50 (LOX IMVI) was 333 nM and the activity at 10 µM (NCI-H522) was -86.3%. The GI50 (A549/ATCC) was 334 nM, the activity at 10 µM (SF-295) was -89.1% and the activity at 10 µM (HS 578T) was -60.3%. It also gave a GI50 (NCI-H322M) of 785 nM, an activity at 10 µM (OVCAR-5 [11]) of -95.9% and an activity at 10 µM (ACHN [12]) of -97.8%. For the same compound, the activity at 10 µM (HT29) was -80.7%, the activity at 10 µM (DU-145) was -78.5% and the activity at 10 µM (RPMI-8226) was -56.3%. For the same compound, the GI50 (Colon Cancer panel; read-out: Mean GI50) was 510 nM, the GI50 (Ovarian Cancer panel; read-out: Mean GI50) was 1570 nM and the GI50 (T-47D [13]) was 314 nM. For the same compound, the activity at 10 µM (SNB-75) was -61.2%, the activity at 10 µM (COLO 205 [14]) was -50.2% and the activity at 10 µM (MDA-MB-468 [15]) was -92.1%. It also gave a GI50 (ACHN [16]) of 1610 nM, a GI50 (Renal Cancer panel; read-out: Mean GI50) of 1050 nM and an activity at 10 µM (T-47D [17]) of -78.4%. For the same compound, the activity at 10 µM (HOP-62 [18]) was -81.6%, the activity at 10 µM (CAKI-1) was -95.3% and the GI50 (TK-10 [19]) was 600 nM. It also gave an activity at 10 µM (SK-MEL-28) of -96.6%.

From paper PMC12028158, “Synthesis and In Vitro Evaluation of the Anticancer Effect of Novel Phosphonium Vindoline Derivatives” (International Journal of Molecular Sciences, 2025)
